These results are taken from US9598416B2, “Substituted benzothienyl-pyrrolotriazines and uses thereof in the treatment cancer” (Bayer Intellectual Property GmbH, priority 2011, dated 2017).

Counter-ions that a name gives are not always drawn. Like-named read-outs stand apart in the source and are kept apart here.

One experiment addresses human mTOR (Homo sapiens (Human), UniProt P42345). The experiment is described as follows: mTOR kinase assay (TR-FRET, for comparative purposes). Conditions: for inhibition at 1 µM: read-out: mTOR % inhibition @ 1 μM. It counts as biochemical. From the text:
mTOR inhibitory activity of the compounds of the present invention was quantified employing the TR-FRET based mTOR assay as described in the following paragraphs: Recombinant fusion tagged mTOR protein [glutathione-S-transferase (GST) fused to human mTOR amino acids from 1360 to 2549], expressed in insect cells and purified by glutathione-sepharose affinity chromatography, was purchased from Invitrogen (Cat.-No. 4753) and used as enzyme. As substrate for the kinase reaction, a recombinant fusion protein of GFP and 4E-BP1 (purchased from Invitrogen, Cat.-No. PV4759) was used. Test compounds were dissolved in DMSO to generate 10 mM stock solutions. […] The resulting mixture was incubated for 1 h at 22° C. to allow formation of the complex between the phosphorylated substrate and the Tb-chelate labelled antibody. Subsequently, the amount of phosphorylated substrate was evaluated by measurement of the resonance energy transfer from the Tb-chelate to the GFP. For this, the fluorescence emissions at 495 nm and 520 nm after excitation at 340 nm was measured in an Envision 2104 multilabel reader (Perkin-Elmer). The ratio of the emissions at 520 nm and at 495 nm was taken as the measure for the amount of phosphorylated substrate.

For a further experiment, the target named is human FGFR-3 (Homo sapiens (Human), UniProt P22607). The experiment is described as follows: FGFR-3 kinase assay (TR-FRET). It counts as biochemical. The settings on record: 10 μM ATP; compounds of the invention.
Where [1] appears, read: 1 μM test compound, mean inhibition values.

Chain of human mTOR (P42345 1360-2549): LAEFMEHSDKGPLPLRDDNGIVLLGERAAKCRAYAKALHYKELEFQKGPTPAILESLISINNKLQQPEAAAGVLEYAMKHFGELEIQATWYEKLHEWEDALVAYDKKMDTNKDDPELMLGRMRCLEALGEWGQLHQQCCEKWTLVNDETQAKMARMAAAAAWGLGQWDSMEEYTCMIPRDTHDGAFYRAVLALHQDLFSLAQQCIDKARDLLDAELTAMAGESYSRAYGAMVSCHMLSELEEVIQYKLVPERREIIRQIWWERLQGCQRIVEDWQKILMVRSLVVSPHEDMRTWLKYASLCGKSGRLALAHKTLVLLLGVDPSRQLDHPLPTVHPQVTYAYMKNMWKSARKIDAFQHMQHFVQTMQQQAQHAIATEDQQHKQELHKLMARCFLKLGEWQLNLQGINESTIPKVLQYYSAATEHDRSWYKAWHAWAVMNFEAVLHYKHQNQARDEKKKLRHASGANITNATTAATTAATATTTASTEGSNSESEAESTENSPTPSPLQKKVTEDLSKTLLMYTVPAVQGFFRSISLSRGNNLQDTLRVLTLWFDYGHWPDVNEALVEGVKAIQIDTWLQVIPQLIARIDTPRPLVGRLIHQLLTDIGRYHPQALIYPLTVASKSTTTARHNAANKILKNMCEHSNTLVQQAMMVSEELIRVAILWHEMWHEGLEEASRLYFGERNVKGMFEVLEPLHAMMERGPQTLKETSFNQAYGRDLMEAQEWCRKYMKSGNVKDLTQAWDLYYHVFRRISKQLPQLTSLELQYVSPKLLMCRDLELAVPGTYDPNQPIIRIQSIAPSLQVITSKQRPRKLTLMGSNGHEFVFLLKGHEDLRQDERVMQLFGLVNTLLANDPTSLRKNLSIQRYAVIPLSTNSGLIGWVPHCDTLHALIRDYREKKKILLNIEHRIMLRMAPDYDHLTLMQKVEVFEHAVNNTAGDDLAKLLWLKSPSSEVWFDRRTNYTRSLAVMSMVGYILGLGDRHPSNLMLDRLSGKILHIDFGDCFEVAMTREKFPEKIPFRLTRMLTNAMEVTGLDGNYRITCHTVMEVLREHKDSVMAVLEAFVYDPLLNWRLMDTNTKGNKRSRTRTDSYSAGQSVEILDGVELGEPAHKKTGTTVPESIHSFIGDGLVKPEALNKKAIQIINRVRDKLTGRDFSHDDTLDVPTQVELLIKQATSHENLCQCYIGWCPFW
Chain of human FGFR-3 (P22607 397-806): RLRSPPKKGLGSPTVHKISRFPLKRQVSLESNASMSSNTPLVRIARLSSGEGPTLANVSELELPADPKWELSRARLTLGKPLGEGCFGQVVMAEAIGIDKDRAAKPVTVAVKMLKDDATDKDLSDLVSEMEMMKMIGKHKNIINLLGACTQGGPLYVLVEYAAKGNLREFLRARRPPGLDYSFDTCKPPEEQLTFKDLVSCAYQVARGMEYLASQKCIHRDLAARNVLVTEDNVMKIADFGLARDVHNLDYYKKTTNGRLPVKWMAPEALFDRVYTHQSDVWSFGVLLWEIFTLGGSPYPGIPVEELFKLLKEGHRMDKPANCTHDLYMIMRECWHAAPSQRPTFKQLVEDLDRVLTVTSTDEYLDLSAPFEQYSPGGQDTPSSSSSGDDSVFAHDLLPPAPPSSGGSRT

Regarding `COc1cc(C)cc2cc(-c3c(CNC(C)C(N)=O)cn4ncnc(N)c34)sc12` (racemic) [Example 12, rac-N^2-{[4-Amino-5-(7-methoxy-5-methyl-1-benzothiophen-2-yl)pyrrolo[2,1-f][1,2,4]triazin-6-yl]-methyl}alaninamide], the inhibition (usually the change of the read-out against control, counted positive when it falls) at 1 µM at human mTOR (setting [1]) came to 7.2%. For the same molecule, the IC50 (commonly the concentration that inhibits the measured activity by half) on human FGFR-3 was 11.6 nM.

On to `COc1cccc2cc(-c3c(CN4CCNC(=O)C4)cn4ncnc(N)c34)sc12` [Example 30, 4-{[4-Amino-5-(7-methoxy-1-benzothiophen-2-yl)pyrrolo[2,1-f][1,2,4]triazin-6-yl]methyl}piperazin-2-one], for which the inhibition at 1 µM at human mTOR (setting [1]) is 1.6%. Besides, on human FGFR-3, the IC50 was 3.1 nM.

`COc1cc(C)cc2cc(-c3c(CNCCO)cn4ncnc(N)c34)sc12` [Example 10, 2-({[4-Amino-5-(7-methoxy-5-methyl-1-benzothiophen-2-yl)pyrrolo[2,1-f][1,2,4]triazin-6-yl]-methyl}amino)ethanol dihydrochloride]: the inhibition at 1 µM at human mTOR is 10.3%. Besides, at human FGFR-3, the IC50 came to 1.4 nM.

With `COc1cc(C)cc2cc(-c3c(CNC(C)=O)cn4ncnc(N)c34)sc12` [Example 9, N-{[4-Amino-5-(7-methoxy-5-methyl-1-benzothiophen-2-yl)pyrrolo[2,1-f][1,2,4]triazin-6-yl]-methyl}acetamide], the “mTOR % inhibition @ 1 μM” value on human mTOR (setting [1]) is “no inhib. effect detect”. Also, at human FGFR-3, it took 0.2 nM to reach half-maximal inhibition (IC50).

For the molecule `CCOC(=O)CNCc1cn2ncnc(N)c2c1-c1cc2cc(C)cc(OC)c2s1` [Example 15, Ethyl N-{[4-amino-5-(7-methoxy-5-methyl-1-benzothiophen-2-yl)pyrrolo[2,1-f][1,2,4]triazin-6-yl]-methyl}glycinate dihydrochloride], on human mTOR, the inhibition at 1 µM was found to be 4%. On human FGFR-3, the IC50 was 87.1 nM.

In the case of `COc1cc(C)cc2cc(-c3c(CNCCNC(C)=O)cn4ncnc(N)c34)sc12` [Example 24, N-[2-({[4-Amino-5-(7-methoxy-5-methyl-1-benzothiophen-2-yl)pyrrolo[2,1-f][1,2,4]triazin-6-yl]-methyl}amino)ethyl]acetamide trifluoroacetate], the inhibition at 1 µM at human mTOR was found to be 0.3%. Also, the IC50 on human FGFR-3 came out at 8.7 nM.

In the case of `COc1cc(C)cc2cc(-c3c(CN(C)CC(N)=O)cn4ncnc(N)c34)sc12` [Example 14, N^2-{[4-Amino-5-(7-methoxy-5-methyl-1-benzothiophen-2-yl)pyrrolo[2,1-f][1,2,4]triazin-6-yl]-methyl}-N^2-methylglycinamide], at human mTOR (setting [1]), the inhibition at 1 µM was 0.3%. This molecule displayed an IC50 at human FGFR-3 of 0.8 nM.

Turning to `COc1cc(C)cc2cc(-c3c(CN4CCN(C(=O)OC(C)(C)C)CC4)cn4ncnc(N)c34)sc12` [Example 22, tert-Butyl 4-{[4-amino-5-(7-methoxy-5-methyl-1-benzothiophen-2-yl)pyrrolo[2,1-f][1,2,4]triazin-6-yl]methyl}piperazine-1-carboxylate trifluoroacetate], the inhibition at 1 µM at human mTOR was found to be 1.6%. At human FGFR-3, this molecule gave a concentration for half-maximal inhibition (IC50) of 10.8 nM.

Take `COc1cc(C)cc2cc(-c3c(COCC(N)=O)cn4ncnc(N)c34)sc12` [Example 6, 2-{[4-Amino-5-(7-methoxy-5-methyl-1-benzothiophen-2-yl)pyrrolo[2,1-f][1,2,4]triazin-6-yl]-methoxy}acetamide]: the inhibition at 1 µM on human mTOR (setting [1]) worked out at 11.3%. The molecule also showed an IC50 against human FGFR-3 of 4.4 nM.

For the molecule `COc1cc(C)cc2cc(-c3c(CO[C@@H](C)CO)cn4ncnc(N)c34)sc12` [Example 3, (2S)-2-{[4-Amino-5-(7-methoxy-5-methyl-1-benzothiophen-2-yl)pyrrolo[2,1-f][1,2,4]triazin-6-yl]-methoxy}propan-1-ol], at human mTOR (setting [1]), the inhibition at 1 µM amounted to 2.5%. The molecule further gave a half-maximal inhibitory concentration (IC50) at human FGFR-3 of 4.2 nM.

With `CNC(=O)CNCc1cn2ncnc(N)c2c1-c1cc2cc(C)cc(OC)c2s1` [Example 13, N^2-{[4-Amino-5-(7-methoxy-5-methyl-1-benzothiophen-2-yl)pyrrolo[2,1-f][1,2,4]triazin-6-yl]-methyl}-N-methylglycinamide], at human mTOR (setting [1]), the inhibition at 1 µM came to 5.3%. This molecule registered an IC50 against human FGFR-3 of 15.1 nM.

As to `CCOCc1cn2ncnc(N)c2c1-c1cc2cc(C)cc(OC)c2s1` [Example 28, 6-(Ethoxymethyl)-5-(7-methoxy-5-methyl-1-benzothiophen-2-yl)pyrrolo[2,1-f][1,2,4]triazin-4-amine], on human mTOR (setting [1]), the inhibition at 1 µM amounted to 35.5%. The same molecule displayed a half-inhibitory concentration (IC50) against human FGFR-3 of 14.2 nM.

For the molecule `COc1cc(C)cc2cc(-c3c(CNCCCO)cn4ncnc(N)c34)sc12` [Example 20, 3-({[4-Amino-5-(7-methoxy-5-methyl-1-benzothiophen-2-yl)pyrrolo[2,1-f][1,2,4]triazin-6-yl]-methyl}amino)propan-1-ol dihydrochloride], the “mTOR % inhibition @ 1 μM” value on human mTOR (setting [1]) is listed as “no inhib. effect detect”. In addition, the IC50 on human FGFR-3 stood at 15.2 nM.

On to `COc1cc(C)cc2cc(-c3c(COCC(=O)O)cn4ncnc(N)c34)sc12` [Example 5, {[4-Amino-5-(7-methoxy-5-methyl-1-benzothiophen-2-yl)pyrrolo[2,1-f][1,2,4]triazin-6-yl]-methoxy}acetic acid], for which the inhibition at 1 µM on human mTOR (setting [1]) was 2.7%. Further, half-maximal inhibition against human FGFR-3 (IC50) required 72.4 nM.

`COc1cc(C)cc2cc(-c3c(CN4CCC(O)C4)cn4ncnc(N)c34)sc12` (racemic) [Example 18, rac-1-{[4-Amino-5-(7-methoxy-5-methyl-1-benzothiophen-2-yl)pyrrolo[2,1-f][1,2,4]triazin-6-yl]-methyl}pyrrolidin-3-ol dihydrochloride]: the “mTOR % inhibition @ 1 μM” value on human mTOR (setting [1]) is listed as “no inhib. effect detect”. For the same molecule, on human FGFR-3, the concentration for half-maximal inhibition (IC50) was determined as 1.3 nM.

In the case of `COc1cc(C)cc2cc(-c3c(CN4CCNCC4)cn4ncnc(N)c34)sc12` [Example 25, 5-(7-Methoxy-5-methyl-1-benzothiophen-2-yl)-6-(piperazin-1-ylmethyl)pyrrolo[2,1-f][1,2,4]triazin-4-amine trihydrochloride], the “mTOR % inhibition @ 1 μM” value at human mTOR (setting [1]) is “no inhib. effect detect”. The concentration for half-maximal inhibition (IC50) on human FGFR-3 turned out to be 0.4 nM.

For the molecule `COc1cc(C)cc2cc(-c3c(CN4CCN(C(C)=O)CC4)cn4ncnc(N)c34)sc12` [Example 21, 1-(4-{[4-Amino-5-(7-methoxy-5-methyl-1-benzothiophen-2-yl)pyrrolo[2,1-f][1,2,4]triazin-6-yl]-methyl}piperazin-1-yl)ethanone], the “mTOR % inhibition @ 1 μM” value at human mTOR (setting [1]) was “no inhib. effect detect”. This molecule yielded a 50% inhibitory concentration (IC50) at human FGFR-3 of 27.9 nM.

For the molecule `COc1cc(C)cc2cc(-c3c(CNCC(N)=O)cn4ncnc(N)c34)sc12` [Example 16, N^2-{[4-Amino-5-(7-methoxy-5-methyl-1-benzothiophen-2-yl)pyrrolo[2,1-f][1,2,4]triazin-6-yl]-methyl}glycinamide], the inhibition at 1 µM at human mTOR (setting [1]) turned out to be 8.8%. At human FGFR-3, this molecule returned a half-maximal inhibitory concentration (IC50) of 2.3 nM.

For `Cc1ccc2sc(-c3c(CN4CCNC(=O)C4)cn4ncnc(N)c34)cc2c1` [Example 29, 4-{[4-Amino-5-(5-methyl-1-benzothiophen-2-yl)pyrrolo[2,1-f][1,2,4]triazin-6-yl]methyl}piperazin-2-one], at human mTOR (setting [1]), the inhibition at 1 µM came to 0.6%. On human FGFR-3, this molecule registered an IC50 of 18.7 nM.

In the case of `COc1cc(C)cc2cc(-c3c(CN4CCNC(=O)C4)cn4ncnc(N)c34)sc12` [Example 11, 4-{[4-Amino-5-(7-methoxy-5-methyl-1-benzothiophen-2-yl)pyrrolo[2,1-f][1,2,4]triazin-6-yl]-methyl}piperazin-2-one], the “mTOR % inhibition @ 1 μM” value on human mTOR (setting [1]) is “no inhib. effect detect”. This molecule also had an IC50 on human FGFR-3 of 0.4 nM.

`COc1cc(Cl)cc2cc(-c3c(CN4CCNC(=O)C4)cn4ncnc(N)c34)sc12` [Example 31, 4-{[4-Amino-5-(5-chloro-7-methoxy-1-benzothiophen-2-yl)pyrrolo[2,1-f][1,2,4]triazin-6-yl]methyl}-piperazin-2-one]: at human mTOR (setting [1]), the inhibition at 1 µM was 9.1%. The IC50 against human FGFR-3 is 0.3 nM.
